From patent publication US20250134887A1, “METHODS OF TREATING PROSTATE CANCER” (AstraZeneca AB, priority 2022, published 2025)

Test system: patients with mCRPC
Assay: PROpel (NCT03732820) double-blind randomized phase III trial: efficacy and patient-reported outcomes
Assay type: in vivo, human
Excerpt: The primary objective was efficacy as assessed by investigator-assessed imaging-based progression-free survival.
Patient population. Eligible patients were 18 years of age (or 19 years of age in South Korea) and had histologically or cytologically confirmed prostate adenocarcinoma with at least one documented metastatic lesion on either a bone scan, computed tomography, or magnetic resonance imaging scan. […] Docetaxel during neoadjuvant/adjuvant treatment for localized prostate cancer and the metastatic hormone-sensitive (mHSPC) stage of disease was permitted, as long as no signs of failure or disease progression occurred during or immediately after such treatment. Prior to mCRPC stage, treatment with second-generation antiandrogen agents (except abiraterone) without PSA progression/clinical progression/radiographic progression during treatment was allowed, provided the treatment was stopped at least 12 months before randomisation.
Trial design and interventions. This was a double-blind, placebo-controlled, phase Ill trial. Eligible patients were randomized (1:1) to treatment with abiraterone acetate (1000 mg once daily) in combination with either olaparib (300 mg twice daily) or placebo. All patients received prednisone or prednisolone (5 mg twice daily) as per the abiraterone acetate label requirement. Randomization was stratified by distant metastasis type (bone only/visceral/other) at baseline and by docetaxel treatment at the mHSPC stage of disease (yes or no). Study treatment continued until objective imaging-based progressive disease assessed by investigator (using Response Evaluation Criteria in Solid Tumors [RECIST 1.1] for soft tissue lesions and Prostate Cancer Working Group-3 [PCWG-3] criteria for bone lesions), unacceptable toxicity, or withdrawal of consent. Following objective disease progression, further treatment options were at the discretion of the investigator. […] Crossover from placebo to receive olaparib in combination with abiraterone acetate was not allowed.
Endpoints. The primary endpoint was imaging-based progression-free survival or death from any cause in the absence of disease progression. Sensitivity analysis by blinded independent central review and exploratory subgroup analysis of investigator-assessed imaging-based progression-free survival to assess consistency of treatment effect across potential prognostic factors were prespecified. Subgroups included HRRm status.
A key secondary endpoint was overall survival. Other secondary endpoints included time to first subsequent therapy or death (TFST), time to second progression or death (PFS2) and patient-reported outcomes. Further exploratory endpoints were objective response rate (ORR), prostate-specific antigen (PSA) response rate and time to PSA progression.
Statistical analysis. Efficacy was analyzed for the intention-to-treat population and safety was analyzed for all patients who received any amount of abiraterone acetate, olaparib, or placebo.
The first planned interim analysis of the primary endpoint of imaging-based progression-free survival is reported in this example. Imaging-based progression-free survival will be reported subsequently at a second data cutoff. Overall survival will be formally tested at all points, including a third data cutoff.
With a sample size of 796 patients, the first interim analysis was planned to occur when there had been approximately 379 progression or death events (47.6% maturity), to provide 94.1% power at a one-sided alpha of 0.014 to show a statistically significant difference in imaging-based progression-free survival between the trial arms, assuming a hazard ratio for progression or death of 0.68.
A multiple testing procedure controlled the overall one-sided type 1 error rate of 2.5%.

[1] = rPFS investigator assessment, FAS, All patients
[2] = rPFS, subgroup Age at randomisation: <65 years
[3] = rPFS, subgroup Age at randomisation: ≥65 years
[4] = rPFS, subgroup Docetaxel treatment at mHSPC stage
[5] = rPFS, subgroup HRRm Unknown, ctDNA test
[6] = rPFS, subgroup HRRm Unknown, tumour tissue test
[7] = rPFS, subgroup HRRm, ctDNA test (FoundationOne Liquid CDx)
[8] = rPFS, subgroup HRRm, tumour tissue test (FoundationOne CDx)
[9] = rPFS, subgroup No docetaxel treatment at mHSPC stage
[10] = rPFS, subgroup Non-HRRm, ctDNA test
[11] = rPFS, subgroup Non-HRRm, tumour tissue test
[12] = rPFS, subgroup Site of distant metastases: Bone only
[13] = rPFS, subgroup Site of distant metastases: Other
[14] = rPFS, subgroup Site of distant metastases: Visceral

CC(=O)O[C@H]1CC[C@@]2(C)C(=CC[C@@H]3[C@@H]2CC[C@]2(C)C(c4cccnc4)=CC[C@@H]32)C1 [abiraterone acetate and placebo, (3β)-17-(3-pyridinyl) androsta-5,16-dien-3-yl acetate]
second progression or death events (PFS2, number of events): 94 | patients who received a first subsequent therapy (TFST, number of patients): 221 | Confirmed PSA response (human, in vivo): 69.2% | Median time to PSA progression (human, in vivo): 12.0 months | median imaging-based progression-free survival by investigator assessment (intention-to-treat, first interim analysis, data cutoff Jul. 30, 2021): 16.6 months | Median rPFS (investigator assessment, FAS, All patients): 16.59 months | progression or death events, blinded independent central review (number of events): 218 | progression or death events, investigator assessment (number of events): 226 | ORR, number of patients with response (of 161 patients (olaparib arm) / of 160 patients (placebo arm) with measurable disease at baseline): 77 | deaths (overall survival analysis, number of deaths): 121 | ORR (patients with measurable disease at baseline): 48.1% | median imaging-based progression-free survival by blinded independent central review (prespecified sensitivity analysis): 16.4 months | Number of events/total number of patients [1]: 226/397 | Number of events/total number of patients (%) [1]: (56.9) % | Number of events/total number of patients [2]: 59/97 | Number of events/total number of patients (%) [2]: (60.8) % | Number of events/total number of patients [3]: 167/300 | Number of events/total number of patients (%) [3]: (55.7) % | Number of events/total number of patients [4]: 56/94 | Number of events/total number of patients (%) [4]: (59.6) % | Number of events/total number of patients [5]: 13/30 | Number of events/total number of patients (%) [5]: (43.3) % | Number of events/total number of patients [6]: 76/131 | Number of events/total number of patients (%) [6]: (58.0) % | Number of events/total number of patients [7]: 66/100 | Number of events/total number of patients (%) [7]: (66.0) % | Number of events/total number of patients [8]: 37/56 | Number of events/total number of patients (%) [8]: (66.1) % | Number of events/total number of patients [9]: 170/303 | Number of events/total number of patients (%) [9]: (56.1) % | Number of events/total number of patients [10]: 147/267 | Number of events/total number of patients (%) [10]: (55.1) % | Number of events/total number of patients [11]: 113/210 | Number of events/total number of patients (%) [11]: (53.8) % | Number of events/total number of patients [12]: 102/217 | Number of events/total number of patients (%) [12]: (47.0) % | Number of events/total number of patients [13]: 84/128 | Number of events/total number of patients (%) [13]: (65.6) % | Number of events/total number of patients [14]: 40/52 | Number of events/total number of patients (%) [14]: (76.9) % | Median rPFS (subgroup Age at randomisation: <65 years): 16.36 months | Median rPFS (subgroup Age at randomisation: ≥65 years): 16.66 months | Median rPFS (subgroup Docetaxel treatment at mHSPC stage): 13.83 months | Median rPFS (subgroup HRRm Unknown, tumour tissue test): 16.39 months | Median rPFS (subgroup HRRm, ctDNA test (FoundationOne Liquid CDx)): 13.63 months | Median rPFS (subgroup HRRm, tumour tissue test (FoundationOne CDx)): 16.62 months | Median rPFS (subgroup No docetaxel treatment at mHSPC stage): 16.82 months | Median rPFS (subgroup Non-HRRm, ctDNA test): 18.96 months | Median rPFS (subgroup Non-HRRm, tumour tissue test): 16.59 months | Median rPFS (subgroup Site of distant metastases: Bone only): 22.18 months | Median rPFS (subgroup Site of distant metastases: Other): 13.70 months | Median rPFS (subgroup Site of distant metastases: Visceral): 10.91 months
